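Test compounds were applied to cells in 96-well plates for 48 hours at 5 doses. Abbreviation: GI50, concentration required for 50% inhibition of growth.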 Active and inactive are the calls of the source. Cut-off read from the data, not from the text of the source: active = GI50 up to about 1.1 µM and inactive = higher.
Key:
Assay in all cases: inhibition of tumour cell growth, NCI panel, 48 h
786-0 = test system: 786-0
A549 = test system: A549
EKVX = test system: EKVX
HOP-62 = test system: HOP-62
Hs-578T = test system: Hs-578T
M14 = test system: M14
MCF7 = test system: MCF7
MDA-MB-435 = test system: MDA-MB-435
MDA-N = test system: MDA-N
NCI-H460 = test system: NCI-H460
NCI-H522 = test system: NCI-H522
OVCAR-3 = test system: OVCAR-3
RPMI-8226 = test system: RPMI-8226
RXF 393 = test system: RXF 393
SK-MEL-28 = test system: SK-MEL-28
SK-OV-3 = test system: SK-OV-3
SNB-19 = test system: SNB-19
SNB-75 = test system: SNB-75
T47D = test system: T47D
UO-31 = test system: UO-31

SMILES | GI50 (786-0) | GI50 (A549) | GI50 (EKVX) | GI50 (HOP-62) | GI50 (Hs-578T) | GI50 (M14) | GI50 (MCF7) | GI50 (MDA-MB-435) | GI50 (MDA-N) | GI50 (NCI-H460) | GI50 (NCI-H522) | GI50 (OVCAR-3) | GI50 (RPMI-8226) | GI50 (RXF 393) | GI50 (SK-MEL-28) | GI50 (SK-OV-3) | GI50 (SNB-19) | GI50 (SNB-75) | GI50 (T47D) | GI50 (UO-31)
O=C1NC(c2cccc(OCc3ccccc3)c2)Nc2ccccc21 (stereo not given) | 0.286 µM (active) | 0.13 µM (active) | 0.339 µM (active) | 0.359 µM (active) | 0.241 µM (active) | 0.181 µM (active) | 0.034 µM (active) | 0.023 µM (active) | 0.0187 µM (active) | 0.208 µM (active) | 0.213 µM (active) | 0.1 µM (active) | 0.0416 µM (active) | 0.11 µM (active) | 0.309 µM (active) | 0.307 µM (active) | 0.324 µM (active) | 0.0703 µM (active) | 19.1 µM (inactive) | 4.55 µM (inactive)
COC(=O)C(CBr)CBr | 4.52 µM (inactive) | 18.2 µM (inactive) | 9.55 µM (inactive) | 22.5 µM (inactive) | 4.65 µM (inactive) | 2.15 µM (inactive) | 4.46 µM (inactive) | 3.33 µM (inactive) | 3.48 µM (inactive) | 14 µM (inactive) | 2.14 µM (inactive) | 2.65 µM (inactive) | 0.757 µM (active) | 2.19 µM (inactive) | 3.77 µM (inactive) | 18.8 µM (inactive) | 8.51 µM (inactive) | 16.3 µM (inactive) | 2.5 µM (inactive) | 5.65 µM (inactive)
COc1ccc(/C=C2/N/C(=N\N=C/C(O)C(O)C(O)C(O)CO)NC2=O)cc1 (stereo not given) | > 100 µM (inactive) | > 100 µM (inactive) | > 100 µM (inactive) | > 100 µM (inactive) | > 100 µM (inactive) | > 100 µM (inactive) | 40.1 µM (inactive) | > 100 µM (inactive) | > 100 µM (inactive) | > 100 µM (inactive) | > 100 µM (inactive) | > 100 µM (inactive) | > 100 µM (inactive) | > 100 µM (inactive) | > 100 µM (inactive) | > 100 µM (inactive) | > 100 µM (inactive) | > 100 µM (inactive) | 62.1 µM (inactive) | > 100 µM (inactive)
CC(=O)c1[nH]c(NC(C)C)c(C(=S)Nc2ccccc2)c1N | 24.3 µM (inactive) | 32.3 µM (inactive) | 37 µM (inactive) | 38 µM (inactive) | 36 µM (inactive) | 19.8 µM (inactive) | 19.5 µM (inactive) | 21.7 µM (inactive) | 22.1 µM (inactive) | 31.8 µM (inactive) | 16.6 µM (inactive) | 32.1 µM (inactive) | 0.059 µM (active) | 18.4 µM (inactive) | 32.4 µM (inactive) | 65.9 µM (inactive) | 27.8 µM (inactive) | > 100 µM (inactive) | 21.4 µM (inactive) | 20.5 µM (inactive)
CN(C)Cc1cc(/N=N/c2ccc(Cl)cc2)cc(CN(C)C)c1O | 5.53 µM (inactive) | 8.93 µM (inactive) | > 10 µM (inactive) | 2.58 µM (inactive) | 11.3 µM (inactive) | 14.5 µM (inactive) | 7.87 µM (inactive) | 12.2 µM (inactive) | 13.2 µM (inactive) | 5.15 µM (inactive) | 1.77 µM (inactive) | 1.84 µM (inactive) | 12.8 µM (inactive) | 9.44 µM (inactive) | 11.7 µM (inactive) | 17.1 µM (inactive) | 10.6 µM (inactive) | 10.9 µM (inactive) | 10.5 µM (inactive) | 1.52 µM (inactive)
COc1ccc(/N=C(Nc2ccc(OC)cc2)/C(=N/c2ccc(OC)cc2)Nc2ccc(OC)cc2)cc1 | > 100 µM (inactive) | 96.2 µM (inactive) | > 100 µM (inactive) | > 100 µM (inactive) | 37.1 µM (inactive) | > 100 µM (inactive) | > 100 µM (inactive) | > 100 µM (inactive) | > 100 µM (inactive) | > 100 µM (inactive) | > 100 µM (inactive) | > 100 µM (inactive) | 5.66 µM (inactive) | > 100 µM (inactive) | > 100 µM (inactive) | > 100 µM (inactive) | > 100 µM (inactive) | 1.95 µM (inactive) | > 100 µM (inactive) | 5.25 µM (inactive)
C[N+]1=C2[B-](C(C)(C)C)=[N+](C(C)(C)C)[B-]2(C(C)(C)C)[N+](C)=C2[B-](C(C)(C)C)=[N+](C(C)(C)C)[B-]21C(C)(C)C (stereo not given) | > 100 µM (inactive) | > 100 µM (inactive) | > 100 µM (inactive) | > 100 µM (inactive) | > 100 µM (inactive) | > 100 µM (inactive) | 59.4 µM (inactive) | > 100 µM (inactive) | > 100 µM (inactive) | > 100 µM (inactive) | > 100 µM (inactive) | > 100 µM (inactive) | > 100 µM (inactive) | > 100 µM (inactive) | > 100 µM (inactive) | > 100 µM (inactive) | > 100 µM (inactive) | > 100 µM (inactive) | > 100 µM (inactive) | > 100 µM (inactive)
COCOc1cc(OCOC)cc(C(=O)Oc2ccccc2)c1 | > 100 µM (inactive) | > 100 µM (inactive) | 91.4 µM (inactive) | > 100 µM (inactive) | 43.1 µM (inactive) | > 100 µM (inactive) | > 100 µM (inactive) | > 100 µM (inactive) | > 100 µM (inactive) | > 100 µM (inactive) | 48.3 µM (inactive) | > 100 µM (inactive) | 61.7 µM (inactive) | > 100 µM (inactive) | > 100 µM (inactive) | > 100 µM (inactive) | > 100 µM (inactive) | 78.3 µM (inactive) | 57.4 µM (inactive) | 78.5 µM (inactive)
C/C(=N/NC(=S)Nc1cccc(Cl)c1)c1cccc(/C(C)=N\NC(=S)Nc2cccc(Cl)c2)n1 | 0.893 µM (active) | 2.96 µM (inactive) | 3.44 µM (inactive) | 1.15 µM (inactive) | > 23.8 µM (inactive) | 1.62 µM (inactive) | 1.99 µM (inactive) | 6.87 µM (inactive) | 20.2 µM (inactive) | 2.01 µM (inactive) | 3.03 µM (inactive) | 0.379 µM (active) | 3.05 µM (inactive) | 2.38 µM (inactive) | > 100 µM (inactive) | 4.22 µM (inactive) | 19.4 µM (inactive) | 2.58 µM (inactive) | 3.48 µM (inactive) | 1.67 µM (inactive)
CC(=O)Nc1nc(C)c(S(=O)(=O)NC(=O)NC2NC(=O)NC2=O)s1 (stereo not given) | > 100 µM (inactive) | > 100 µM (inactive) | > 100 µM (inactive) | > 100 µM (inactive) | > 100 µM (inactive) | > 100 µM (inactive) | > 100 µM (inactive) | > 100 µM (inactive) | > 100 µM (inactive) | > 100 µM (inactive) | > 100 µM (inactive) | > 100 µM (inactive) | > 100 µM (inactive) | > 100 µM (inactive) | > 100 µM (inactive) | > 100 µM (inactive) | > 100 µM (inactive) | > 100 µM (inactive) | > 100 µM (inactive) | > 100 µM (inactive)
COc1ccc2c(c1)C(N)=C(Cc1ccncc1)C2=O | > 100 µM (inactive) | > 100 µM (inactive) | 53.5 µM (inactive) | > 100 µM (inactive) | > 100 µM (inactive) | > 100 µM (inactive) | 82.4 µM (inactive) | > 100 µM (inactive) | > 100 µM (inactive) | > 100 µM (inactive) | 89.7 µM (inactive) | > 100 µM (inactive) | > 100 µM (inactive) | > 100 µM (inactive) | > 100 µM (inactive) | > 100 µM (inactive) | > 100 µM (inactive) | 28.4 µM (inactive) | 55.2 µM (inactive) | 46 µM (inactive)
C=CC(=C)CCC(Br)C(C)(C)Br (stereo not given) | 99.1 µM (inactive) | > 100 µM (inactive) | > 100 µM (inactive) | > 100 µM (inactive) | > 100 µM (inactive) | 75.9 µM (inactive) | 35.1 µM (inactive) | > 100 µM (inactive) | > 100 µM (inactive) | > 100 µM (inactive) | 15.7 µM (inactive) | > 100 µM (inactive) | 88.1 µM (inactive) | > 100 µM (inactive) | > 100 µM (inactive) | > 100 µM (inactive) | > 100 µM (inactive) | > 100 µM (inactive) | 66.2 µM (inactive) | > 100 µM (inactive)
OCCNc1ncnc2[nH]cnc12 | > 100 µM (inactive) | > 100 µM (inactive) | > 100 µM (inactive) | > 100 µM (inactive) | > 100 µM (inactive) | > 100 µM (inactive) | > 100 µM (inactive) | > 100 µM (inactive) | > 100 µM (inactive) | > 100 µM (inactive) | > 100 µM (inactive) | > 100 µM (inactive) | > 100 µM (inactive) | > 100 µM (inactive) | > 100 µM (inactive) | > 100 µM (inactive) | > 100 µM (inactive) | 0.296 µM (active) | > 100 µM (inactive) | > 100 µM (inactive)
N#CC(C#N)=C(N)/C(C#N)=C/c1cc(O)c(O)c(Br)c1 | > 78.2 µM (inactive) | 59.4 µM (inactive) | 52.8 µM (inactive) | > 69.7 µM (inactive) | 38.9 µM (inactive) | > 75.9 µM (inactive) | 49.4 µM (inactive) | 78.5 µM (inactive) | 99.5 µM (inactive) | 38.1 µM (inactive) | 40.5 µM (inactive) | 27.5 µM (inactive) | > 100 µM (inactive) | > 100 µM (inactive) | > 100 µM (inactive) | > 93.1 µM (inactive) | > 67.3 µM (inactive) | 52.7 µM (inactive) | 32.7 µM (inactive) | 42.4 µM (inactive)

From ChEMBL document CHEMBL1201862, “PubChem BioAssay data set” (2004)
